From publication doi:10.1101/2025.04.09.647920v1, “TIR immune signaling is blocked by phosphorylation to maintain growth in plants and animals” (biorxiv, 2025)

Molecular target: T1, RBA1 (Arabidopsis thaliana, UniProt F4HT77)
T1 construct: TIR-only protein, recombinant from insect cells
T1 sequence (F4HT77 1-363): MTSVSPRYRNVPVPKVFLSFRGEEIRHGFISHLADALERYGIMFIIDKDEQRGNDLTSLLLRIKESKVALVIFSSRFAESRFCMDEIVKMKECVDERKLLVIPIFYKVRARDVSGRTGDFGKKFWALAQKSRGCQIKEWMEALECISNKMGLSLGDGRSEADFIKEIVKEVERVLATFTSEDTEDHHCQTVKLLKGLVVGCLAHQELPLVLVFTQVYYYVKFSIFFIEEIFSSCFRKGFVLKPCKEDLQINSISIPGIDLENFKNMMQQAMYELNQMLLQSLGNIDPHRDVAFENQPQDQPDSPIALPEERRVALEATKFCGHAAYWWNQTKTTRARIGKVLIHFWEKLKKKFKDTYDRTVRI
Assay: LC-MS/MS NADase assay
Type: biochemical
Conditions: in vitro

## NC(=O)c1ccc[n+]([C@@H]2O[C@H](COP(=O)(O)OP(=O)(O)OC[C@H]3O[C@@H](n4cnc5c(N)ncnc54)[C@H](O)[C@@H]3O)[C@@H](O)[C@H]2O)c1 [NAD^+]
  LC-MS/MS NADase assay: Recombinant RBA1 protein purified from insect cells cleaved NAD^+ into nicotinamide (Nam)
